# The supplement of paper PMC13380429
# What was measured:
# Settings in all cases: 72 h
# Caco-2 [1] = experiment: drug sensitivity score (DSS) for viability; higher = more toxic; extreme values may be limits of the assay
# Vero E6 [2] = experiment: as above
# Calu-3 [3] = experiment: as above
# U2OS [4] = experiment: as above
# HepG2 [5] = experiment: as above
# Caco-2 [6] = experiment: cell viability relative to DMSO; higher = less toxic
# Vero E6 [7] = experiment: as above
# Calu-3 [8] = experiment: as above
# U2OS [9] = experiment: as above
# HepG2 [10] = experiment: as above
# Caco-2 [11] = experiment: relative viability EC50 (midpoint between 100% and the lowest measured viability); higher = less toxic
# Vero E6 [12] = experiment: as above
# Calu-3 [13] = experiment: as above
# U2OS [14] = experiment: as above
# HepG2 [15] = experiment: as above
Compound,drug sensitivity score (Caco-2 [1]),drug sensitivity score (Vero E6 [2]),drug sensitivity score (Calu-3 [3]),drug sensitivity score (U2OS [4]),drug sensitivity score (HepG2 [5]),cell viability (Caco-2 [6]; 1 nM),cell viability (Caco-2 [6]; 10 nM),cell viability (Caco-2 [6]; 100 nM),cell viability (Caco-2 [6]; 1000 nM),cell viability (Caco-2 [6]; 10000 nM),cell viability (Vero E6 [7]; 1 nM),cell viability (Vero E6 [7]; 10 nM),cell viability (Vero E6 [7]; 100 nM),cell viability (Vero E6 [7]; 1000 nM),cell viability (Vero E6 [7]; 10000 nM),cell viability (Calu-3 [8]; 1 nM),cell viability (Calu-3 [8]; 10 nM),cell viability (Calu-3 [8]; 100 nM),cell viability (Calu-3 [8]; 1000 nM),cell viability (Calu-3 [8]; 10000 nM),cell viability (U2OS [9]; 1 nM),cell viability (U2OS [9]; 10 nM),cell viability (U2OS [9]; 100 nM),cell viability (U2OS [9]; 1000 nM),cell viability (U2OS [9]; 10000 nM),cell viability (HepG2 [10]; 1 nM),cell viability (HepG2 [10]; 10 nM),cell viability (HepG2 [10]; 100 nM),cell viability (HepG2 [10]; 1000 nM),cell viability (HepG2 [10]; 10000 nM),relative viability EC50 (Caco-2 [11]),relative viability EC50 (Vero E6 [12]),relative viability EC50 (Calu-3 [13]),relative viability EC50 (U2OS [14]),relative viability EC50 (HepG2 [15])
CNCCC(Oc1ccccc1OC)c1ccccc1 (stereo not given) [nisoxetine],0,0,0,0,0,105%,96.2%,109%,98.6%,107%,107%,104%,101%,103%,95.6%,94%,107%,98.2%,109%,102%,105%,98.3%,102%,99%,102%,113%,105%,104%,108%,99%,> 10 µM,> 10 µM,> 10 µM,> 10 µM,> 10 µM
CCN(Cc1ccc(Cl)nc1)/C(=C/[N+](=O)[O-])NC [nitenpyram],0,0,0,0,0,95.8%,100%,95%,97.5%,98.3%,103%,104%,98.1%,96.9%,105%,101%,94%,93.5%,104%,94%,99%,97%,98%,100%,101%,104%,98.7%,105%,97.5%,108%,> 10 µM,> 10 µM,> 10 µM,> 10 µM,> 10 µM
CC(=O)O[C@]1(C(C)=O)CC[C@H]2[C@@H]3C=C(C)C4=CC(=O)CC[C@@H]4[C@H]3CC[C@@]21C [nomegestrol-acetate],0,0,0,0,0,88.5%,97.3%,102%,91.6%,97.4%,100%,96.3%,99.3%,98.6%,111%,99%,94.1%,87.7%,106%,108%,99.8%,102%,102%,103%,101%,103%,97.1%,102%,106%,110%,> 10 µM,> 10 µM,> 10 µM,> 10 µM,> 10 µM
NC[C@H](O)c1ccc(O)c(O)c1 [norepinephrine],0,0,0,0,0,88.9%,95.9%,101%,93.2%,97.5%,99.9%,96.7%,98.1%,95%,98.6%,101%,88.3%,93.7%,98.6%,95.3%,99.4%,100%,98.5%,99.8%,99.6%,102%,95.3%,96%,105%,106%,> 10 µM,> 10 µM,> 10 µM,> 10 µM,> 10 µM
Cc1c(-c2cnccn2)ssc1=S [oltipraz],0,0,0,0,0,94.2%,96%,103%,106%,101%,88.1%,95.2%,88.7%,93%,104%,94%,94.7%,106%,96.5%,101%,98.3%,96.5%,101%,96.4%,104%,93.4%,103%,94.2%,94.7%,105%,> 10 µM,> 10 µM,> 10 µM,> 10 µM,> 10 µM
N[C@H](C(=O)O)c1ccc(O)cc1 [oxfenicine],0,0,0,0,0,94.2%,90.6%,88.6%,88.6%,96.3%,99.7%,96.3%,101%,91.3%,99.1%,103%,95.1%,99.2%,103%,103%,99.7%,103%,98.6%,102%,95.7%,84.1%,96.3%,96.9%,103%,100%,> 10 µM,> 10 µM,> 10 µM,> 10 µM,> 10 µM
Oc1cccc2cccnc12 [oxyquinoline],3.1,0,0,0,0.3,109%,96.4%,84.7%,93.2%,88.7%,96%,100%,94.2%,103%,90.8%,101%,114%,95.5%,104%,98.8%,101%,97.5%,103%,97.5%,100%,119%,79.7%,110%,102%,80.9%,> 10 µM,> 10 µM,> 10 µM,> 10 µM,> 10 µM
